{
  "source": "paper PMC11988671",
  "about": "“SIRT7 Is a Lysine Deacylase with a Preference for Depropionylation and Demyristoylation” (International Journal of Molecular Sciences, 2025)",
  "key": {"SIRT7 [1]": {"biological_target": "T1, SIRT7 (Mus musculus, UniProt Q8BKJ9)", "T1 sequence (Q8BKJ9 1-402)": "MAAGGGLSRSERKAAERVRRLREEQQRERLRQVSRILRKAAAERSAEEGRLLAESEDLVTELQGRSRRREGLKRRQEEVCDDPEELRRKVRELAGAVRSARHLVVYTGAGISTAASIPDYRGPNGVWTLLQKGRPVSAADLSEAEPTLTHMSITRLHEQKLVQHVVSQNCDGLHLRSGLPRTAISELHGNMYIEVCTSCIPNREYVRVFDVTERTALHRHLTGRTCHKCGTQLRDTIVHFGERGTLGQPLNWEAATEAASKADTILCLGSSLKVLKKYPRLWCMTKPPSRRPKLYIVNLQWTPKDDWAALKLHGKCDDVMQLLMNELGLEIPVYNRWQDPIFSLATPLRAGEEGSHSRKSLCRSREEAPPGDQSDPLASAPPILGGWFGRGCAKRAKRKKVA", "experiment": "In vitro deacylation assay of acyl-modified H3K18 peptides by SIRT7 (LC-MS/MS)", "format": "biochemical", "parameters": "HaloTag (N, cleaved yes); made in house; host or cells: E. coli K12 KRX", "details": "8 μM peptide (glutaryl 100 µM), 1.0 mM NAD^+, RNA, 24 h, 37 °C", "protocol": "(§1) In the case of the SIRT1 enzymatic reaction, 8 µM peptide was incubated in 50 µL reaction buffer containing 10 mM NaCl, 10 mM KCl, 20 mM Tris-HCl pH 8.0, 1.0 mM NAD^+, and 1 mM DTT, with or without 1 µg recombinant SIRT1. The reaction mixtures were incubated for 24 h for SIRT7 or 2 h for SIRT1 at 37 °C.\n(§2) The general conditions for electrospray ionization-MS were as follows: nebulizer gas, N2, delivered at 50 psi; nebulizer gas temperature, 250 °C; capillary voltage, 3500 V; and collision gas, G1 grade N2 (Taiyo Nippon Sanso Corporation, Tokyo, Japan)."}, "SIRT7 [2]": {"biological_target": "T1, SIRT7", "experiment": "NAM inhibition assay (in vitro deacylation, LC-MS/MS)", "details": "for IC50: IC50, NAM (relative IC50), wild-type SIRT7"}, "HEK293T cells": {"tested_on": "HEK293T cells", "experiment": "NAD^+ assay in cells treated with FK866", "format": "cell-based", "protocol": "HEK293T and Hepa1–6 cells were treated with the NAMPT inhibitor FK866 (500 pM and 8 nM, respectively), and NAD^+ and total NAD^+/NADH cellular levels were determined using an NAD^+/NADH Assay Kit-WST (#N509; Dojindo Laboratories, Kumamoto, Japan). Total NAD^+/NADH and NADH concentrations in one sample were calculated from the calibration curve, then the NAD^+ level was determined by subtracting the NADH value from the total NAD^+/NADH level."}, "[3]": {"tested_on": "SIRT7-dependent DDB1 deacetylation in HEK293T cells", "experiment": "SIRT7-dependent DDB1 deacetylation (IP and Western blot)", "format": "cell-based", "details": "FK866 500 pM", "protocol": "(§3) HEK293T cells were treated with FK866 or DMSO for 24 h and transfected with the indicated plasmids using JetPRIME reagents (Polypus, Illkirch-Graffenstaden, France) for an additional 24 h. The cells were lysed in IP buffer (20 mM Tris-HCl pH 7.4, 200 mM NaCl, 2.5 mM MgCl2, 0.05% NP-40, 1 mM PMSF, and protease inhibitor cocktail (Nacalai Tesque)) supplemented with 5 mM NAM and 2.5 µM trichostatin A. The lysate was incubated on ice for 20 min and subsequently sonicated twice at 4 °C with a 20 s interval at 26% amplitude using a Sonifier SFX-150 (Branson Ultrasonics) to disrupt the cells. Following sonication, the lysate was centrifuged at 14,000× g for 15 min at 4 °C to separate cellular debris. For immunoprecipitation, 2 mg protein from each sample was incubated with anti-HA- or anti-DYKDDDDK (FLAG)-tagged beads (Fujifilm Wako Pure Chemical Corp.) for 18 h at 4 °C with gentle rotation. After washing with IP buffer, the proteins were eluted in SDS sample buffer, and lysine acetylation was detected by Western blot with an anti-acetylated lysine antibody.\n(§4) For Western blot, proteins were separated by SDS-PAGE and transferred to an Immobilon-P PVDF membrane (Merck Millipore, Burlington, MA, USA), which was probed with primary and secondary antibodies. […]"}, "[4]": {"tested_on": "SIRT1-dependent PPARα deacetylation in HEK293T cells", "experiment": "SIRT1-dependent PPARα deacetylation (IP and Western blot)", "format": "cell-based", "details": "FK866 500 pM", "protocol": "as §3, §4"}, "[5]": {"tested_on": "Cd36 and Cidec expression in Hepa1–6 cells", "experiment": "Cellular gene expression (real-time quantitative PCR)", "format": "cell-based", "details": "FK866 8 nM, 48 h", "protocol": "Hepa1–6 cells were exposed to 8 nM FK866 for 48 h, and the cells were incubated without fetal bovine serum for the final 24 h of treatment. Subsequently, total RNA was extracted from the cells utilizing the Sepasol RNA I Super Reagent (Nacalai Tesque). Quantitative reverse transcription (RT)-PCR was conducted using a PrimeScript RT Reagent Kit (RR047A; TaKaRa Bio, Inc., Kusatsu, Japan) followed by TB Green Premix Ex TaqII (RR820A; TaKaRa Bio, Inc.) and an ABI ViiA 7 Real-Time PCR System (Applied Biosystems, Inc., Foster City, CA, USA). The relative expression level of each gene was normalized to that of TATA box-binding protein (Tbp). The following primer sequences were used: Cd36, forward 5′-TTGGCCAAGCTATTGCGACA-3′ and reverse 5′-CTGGAGGGGTGATGCAAAGG-3′; Cidec, forward 5′-GCTGAAGGGGCAGAAGTGGA-3′ and reverse 5′-GCGCTTGGCCTTGTAGCAGT-3′; and Tbp, forward 5′-CCCCTTGTACCCTTCACCAAT-3′ and reverse 5′-GAAGCTGCGGTACAATTCCAG-3′."}, "SIRT1 [6]": {"tested_on": "SIRT1", "details": "compared with own H3K9Ac value; read-out: Km, NAD^+ for SIRT1, value reported previously; cited from earlier work"}, "SIRT4": {"tested_on": "SIRT4", "parameters": "method as in PMID 23746352", "details": "read-out: Km of SIRT4 for NAD^+; cited from earlier work"}, "SIRT5": {"tested_on": "SIRT5", "parameters": "method as in PMID 23028781", "details": "read-out: Km of SIRT5 for NAD^+; cited from earlier work"}, "SIRT7-DNA and SIRT7-RNA": {"tested_on": "SIRT7-DNA and SIRT7-RNA", "parameters": "method as in PMID 35939806", "details": "compared with own H3K18Ac value in presence of RNA; read-out: Km, NAD^+ for SIRT7, previously reported value; cited from earlier work"}, "SIRT1 [7]": {"biological_target": "T2, SIRT1 (Mus musculus, UniProt Q923E4)", "T2 construct": "HaloTag (N, cleaved yes); made in house; host or cells: E. coli K12 KRX", "T2 sequence (Q923E4 1-737)": "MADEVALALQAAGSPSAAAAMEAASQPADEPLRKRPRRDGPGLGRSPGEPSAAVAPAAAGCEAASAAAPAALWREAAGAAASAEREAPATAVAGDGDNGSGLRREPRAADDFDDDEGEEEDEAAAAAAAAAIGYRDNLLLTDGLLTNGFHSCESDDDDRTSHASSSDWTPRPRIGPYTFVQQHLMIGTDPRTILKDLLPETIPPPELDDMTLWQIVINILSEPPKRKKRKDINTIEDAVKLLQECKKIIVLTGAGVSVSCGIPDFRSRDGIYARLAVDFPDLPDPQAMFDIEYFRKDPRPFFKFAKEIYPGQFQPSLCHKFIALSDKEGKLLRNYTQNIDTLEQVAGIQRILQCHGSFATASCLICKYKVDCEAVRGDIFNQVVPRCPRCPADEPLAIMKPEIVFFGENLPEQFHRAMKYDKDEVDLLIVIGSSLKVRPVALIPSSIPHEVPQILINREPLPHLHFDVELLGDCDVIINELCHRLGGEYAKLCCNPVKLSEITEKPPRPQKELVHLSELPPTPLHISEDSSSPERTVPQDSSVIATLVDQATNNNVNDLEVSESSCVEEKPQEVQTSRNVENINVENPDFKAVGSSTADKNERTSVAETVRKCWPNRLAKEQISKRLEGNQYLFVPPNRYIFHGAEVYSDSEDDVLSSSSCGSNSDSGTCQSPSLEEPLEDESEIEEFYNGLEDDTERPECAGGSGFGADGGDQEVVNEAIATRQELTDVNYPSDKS", "experiment": "In vitro deacetylation assay of H3K9Ac peptide by SIRT1 (LC-MS/MS)", "format": "biochemical", "details": "8 µM peptide, 1.0 mM NAD^+, 2 h, 37 °C", "protocol": "as §1, §2"}, "[8]": {"details": "succinyl H3K18 peptide substrate"}},
  "note": "“And” between values parts separate entries of the source, which are not always exact repeats. Equal entries are not always repeated.",
  "data": [
    {"compound": "NH2-KSTGGKAPRK^ButyrylQLATKAARKS-COOH [butyryl H3K18 peptide]", "values": [
      {"measurement": "Hydrolysis of acyl H3K18 peptide by SIRT7", "setting": "SIRT7 [1]", "result": "catalyzed the hydrolysis"}
    ]},
    {"compound": "NH2-KSTGGKAPRK^SuccinylQLATKAARKS-COOH [succinyl H3K18 peptide]", "values": [
      {"measurement": "Hydrolysis of acyl H3K18 peptide by SIRT7", "setting": "SIRT7 [1]", "result": "catalyzed the hydrolysis"}
    ]},
    {"compound": "NC(=O)c1cccnc1", "note": "[NAM, Nicotinamide]", "values": [
      {"measurement": "IC50", "setting": "SIRT7 [2]; acetyl H3K18 peptide substrate", "result": "23 µM and 23.2 µM"},
      {"measurement": "IC50", "setting": "SIRT7 [2]; butyryl H3K18 peptide substrate", "result": "613 ± 63.8", "unit": "µM"},
      {"measurement": "IC50", "setting": "SIRT7 [2]; myristoyl H3K18 peptide substrate", "result": "286 ± 25.1", "unit": "µM"},
      {"measurement": "IC50", "setting": "SIRT7 [2]; octanoyl H3K18 peptide substrate", "result": "1110 ± 216", "unit": "µM"},
      {"measurement": "IC50", "setting": "SIRT7 [2]; palmitoyl H3K18 peptide substrate", "result": "544 ± 83.7", "unit": "µM"},
      {"measurement": "IC50", "setting": "SIRT7 [2]; propionyl H3K18 peptide substrate", "result": "787 ± 118", "unit": "µM"},
      {"measurement": "IC50", "setting": "SIRT7 [2]; [8]", "result": "1230 ± 268", "unit": "µM"},
      {"measurement": "NAM inhibition of the desuccinylation reaction", "setting": "SIRT7 [2]; [8]", "result": "did not completely inhibit"}
    ]},
    {"compound": "NH2-KSTGGKAPRK^GlutarylQLATKAARKS-COOH [glutaryl peptide]", "values": [
      {"measurement": "Hydrolysis of acyl H3K18 peptide by SIRT7", "setting": "SIRT7 [1]", "result": "not detected"}
    ]},
    {"compound": "O=C(/C=C/c1cccnc1)NCCCCC1CCN(C(=O)c2ccccc2)CC1", "note": "[FK866]", "values": [
      {"measurement": "Cellular NAD^+ levels", "setting": "HEK293T cells", "result": "decreased"},
      {"measurement": "SIRT7-mediated DDB1 deacetylation", "setting": "[3]", "result": "abolished"},
      {"measurement": "Deacetylation of PPARα by SIRT1", "setting": "[4]", "result": "not abolished"},
      {"measurement": "Cd36 expression", "setting": "[5]", "result": "significantly decreased"},
      {"measurement": "Cidec expression", "setting": "[5]", "result": "significantly decreased"}
    ]},
    {"compound": "NC(=O)c1ccc[n+]([C@@H]2O[C@H](COP(=O)([O-])OP(=O)(O)OC[C@H]3O[C@@H](n4cnc5c(N)ncnc54)[C@H](O)[C@@H]3O)[C@@H](O)[C@H]2O)c1", "note": "[NAD^+, Nicotinamide adenine dinucleotide]", "values": [
      {"measurement": "Km", "setting": "SIRT1 [6]", "result": 29, "unit": "µM"},
      {"measurement": "Km", "setting": "SIRT4", "result": 35, "unit": "µM"},
      {"measurement": "Km", "setting": "SIRT5", "result": 980, "unit": "µM"},
      {"measurement": "Km", "setting": "SIRT7-DNA and SIRT7-RNA", "result": 480, "unit": "µM"}
    ]},
    {"compound": "NH2-KSTGGKAPRK^OctanoylQLATKAARKS-COOH [octanoyl H3K18 peptide]", "values": [
      {"measurement": "Hydrolysis of acyl H3K18 peptide by SIRT7", "setting": "SIRT7 [1]", "result": "catalyzed the hydrolysis"}
    ]},
    {"compound": "NH2-ARTKQTARK^AcetylSTGGKAPRKQLC-COOH [H3K9Ac]", "values": [
      {"measurement": "Loss of H3K9Ac peptide and formation of deacetylated H3K9 peptide with recombinant SIRT1", "setting": "SIRT1 [7]", "result": "detected"}
    ]},
    {"compound": "NH2-KSTGGKAPRK^MyristoylQLATKAARKS-COOH [myristoyl H3K18 peptide]", "values": [
      {"measurement": "Hydrolysis of acyl H3K18 peptide by SIRT7", "setting": "SIRT7 [1]", "result": "catalyzed the hydrolysis"}
    ]}
  ]
}
